Experimental data reported in US5643873A, “Peptides and compounds that bind selectins including endothelial leukocyte adhesion molecule 1” (Affymax Technologies N.V., priority 1994, dated 1997).
“And” between values parts separate entries of the source, which are not always exact repeats. Equal values may be shown once. Square brackets hold non-standard residues; d marks the D form. Ends that are not written are not given here. Peptide text beside a SMILES is read from it. Nle = CCCC[C@H](N)C(=O)O

Experiments:
[1] = target: T1, E-selectin (Homo sapiens, UniProt P16581); experiment: IC50-standard competitive binding assay (radiolabeled standard peptide on immobilized E-selectin); design: truncated form comprising the complete extracellular domain (amino acids 1 through 554); made in house; a baculovirus soluble form is also mentioned as an option
T1 sequence (P16581 22-554): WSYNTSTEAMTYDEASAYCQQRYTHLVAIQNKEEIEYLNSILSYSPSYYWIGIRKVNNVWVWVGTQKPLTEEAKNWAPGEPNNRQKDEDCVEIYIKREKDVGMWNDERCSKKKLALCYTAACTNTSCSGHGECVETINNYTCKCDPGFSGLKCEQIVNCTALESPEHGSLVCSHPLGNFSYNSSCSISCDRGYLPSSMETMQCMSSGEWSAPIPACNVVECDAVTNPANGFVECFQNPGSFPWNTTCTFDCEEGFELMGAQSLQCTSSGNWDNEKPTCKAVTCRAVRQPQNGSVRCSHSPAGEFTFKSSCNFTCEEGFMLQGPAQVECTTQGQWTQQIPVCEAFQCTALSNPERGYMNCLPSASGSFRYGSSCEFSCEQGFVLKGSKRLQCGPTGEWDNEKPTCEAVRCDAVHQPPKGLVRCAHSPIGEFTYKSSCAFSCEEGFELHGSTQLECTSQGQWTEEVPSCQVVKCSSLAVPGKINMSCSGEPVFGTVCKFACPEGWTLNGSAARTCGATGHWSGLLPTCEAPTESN
From the text: This latter peptide has strong binding affinity to E-selectin and, accordingly, was used as a standard in a competitive binding assay with candidate peptides and peptide mimetics in order to determine relative binding affinities for E-selectin.
This example measures the concentration of peptide or peptide mimetic required to inhibit 50% of the binding of a radiolabeled standard to E-selectin and the resulting IC50 value is referred to as the "IC50 -standard". In this example, the standard corresponds to the synthetic peptide […] (SEQ ID NO 114) which comprises a known initial seven amino acid group which is a substrate for protein kinase A followed by a 2 amino acid spacer and a 12 amino acid sequence which corresponds to the peptide identified by SEQ ID NO 3 which has an IC50 -HL60 of 10 μM. The peptide is radiolabeled by phosphorylation using either […] or ^33 P phosphate by conventional methods via the protein kinase A. The example is a competitive assay in which 6.5 picograms at 1400 Ci/mmol (65000 cpm) of radiolabelled standard (1400 Ci/mmol) is combined with a titered amount of candidate peptide or peptide mimetic in a constant volume of 30 μL. The combined solution is then added to E-selectin immobilized onto a solid surface in the manner described above. The resulting mixture is then incubated for about 120 minutes to permit equilibrium binding to be achieved. Afterwards, unbound materials are separated from bound materials by conventional methods (e.g., washing) and the amount of the […] bound to E-selectin is determined by scintillation counting. The assay is repeated over several concentrations of candidate peptide or peptide mimetic and the results are entered into a graph whose y axis is the amount of radiolabeled standard bound to E-selectin (measured in cpm) and the x axis is the amount of candidate peptide or peptide mimetic. The results are graphically extrapolated to determine the concentration at which the peptide or peptide mimetic will reduce by 50% the amount of radiolabeled standard bound to E-selectin. This concentration is taken as the IC50 -standard for that peptide or peptide mimetic.

[2] = target: T1, E-selectin; experiment: HL60 cell adhesion assay (labeled HL60 cells adhering to immobilized E-selectin); type: cell-based; design: truncated form comprising the complete extracellular domain (amino acids 1 through 554); made in house; details: for IC50: concentration reducing by 50% the binding of HL60 cells to immobilized E-selectin
Procedure: By comparing test wells with control wells (no receptor), one can determine whether a peptide binds to E-selectin specifically. […] In this regard, HL60 cells are known to contain surface glycoconjugates which bind to E-selectin.
Peptides that block the binding of labeled HL60 cells to E-selectin are then evaluated to determine their IC50 -HL60 in the manner also specified in Example 1.
The assay requires HL60 cells labeled with tritiated thymidine. To label the cells, about 10 million HL60 cells are collected by centrifugation (2500 RPM for 3 minutes) and resuspended in 15 mL of DMEM/F12 plus 5% fetal calf serum containing 2 μCi/mL of tritiated thymidine (Amersham). The cells are then placed in a T75 flask and incubated at 37° C. for 24 hours. The cells are then collected by centrifugation, washed twice with RPMI/HEPES/0.1% FCS, and resuspended in the same solution at a concentration of about one to two million cells per mL. About 100 μL of this cell preparation are used per well of a 96-well microtiter dish in the assay.
The wells of the microtiter dish were first coated with the anti-receptor immobilizing antibody, an anti-HPAP-tail antibody, using about 2.5 μg of antibody per well. […]
After the test compound incubation period, 100 μL of labeled HL60 cells were added to each well, and the microtiter plate was incubated at 4° C. for 30 minutes. […] After this incubation, aliquots were removed from each well and placed in scintillation vials; scintillation fluid was added to each vial; and the radioactivity in each aliquot was quantitated by liquid scintillation counting. […]
The concentration of any peptide or peptide mimetic required to reduce by 50% the binding of HL60 cells to E-selectin as per the assay of Example 1 is determined by the following procedure. […] (SEQ ID NO 23), was determined. […]

[3] = inhibits 50% of binding of radiolabeled standard […] to E-selectin
[4] = inhibits 50% of binding of radiolabeled standard to E-selectin

| Molecule | IC50 [1, 3] [nM] | also measured |
| --- | --- | --- |
| CCCC[C@H](NC(=O)[C@H](CC(C)C)NC(=O)[C@H](CC(=O)O)NC(=O)[C@H](Cc1c[nH]c2ccccc12)NC(=O)[C@H](CC(C)C)NC(=O)[C@H](CCC(N)=O)NC(=O)[C@H](CC(=O)O)NC(=O)[C@H](Cc1c[nH]c2ccccc12)NC(=O)[C@@H](NC(=O)[C@@H](NC(=O)[C@H](CC(=O)O)NC(=O)CNC(=O)[C@@H](N)CC(=O)O)[C@@H](C)CC)[C@@H](C)O)C(=O)N[C@@H](CCCCN)C(=O)O (H-DGDITWDQLWDL[Nle]K-OH) | 42 | – |
| CCCC[C@H](NC(=O)[C@H](CCCC)NC(=O)[C@H](CC(N)=O)NC(=O)[C@H](Cc1c[nH]c2ccccc12)NC(=O)[C@H](CC(C)C)NC(=O)[C@H](CCC(N)=O)NC(=O)[C@H](C)NC(=O)[C@H](Cc1c[nH]c2ccccc12)NC(=O)[C@@H](NC(=O)[C@@H](NC(=O)[C@@H](N)CC(=O)O)[C@@H](C)CC)[C@@H](C)O)C(=O)N[C@@H](CC(N)=O)C(=O)O (H-DITWAQLWN[Nle][Nle]N-OH) | 425 | – |
| CC[C@H](C)[C@H](NC(=O)[C@@H](N)CC(=O)O)C(=O)N[C@H](C(=O)N[C@@H](Cc1c[nH]c2ccccc12)C(=O)N[C@H](CC(=O)O)C(=O)N[C@@H](CCC(N)=O)C(=O)N[C@@H](CC(C)C)C(=O)N[C@@H](Cc1c[nH]c2ccccc12)C(=O)N[C@@H](CC(=O)O)C(=O)N[C@@H](CC(C)C)C(=O)N[C@@H](CCSC)C(=O)N[C@@H](CCCCN)C(=O)O)[C@@H](C)O (H-DITW[dD]QLWDLMK-OH) | 34 | – |
| CC[C@H](C)[C@H](NC(=O)[C@@H](N)CC(=O)O)C(=O)N[C@@H](C(=O)N[C@@H](Cc1c[nH]c2ccccc12)C(=O)N[C@@H](CC(=O)O)C(=O)N[C@@H](CCC(N)=O)C(=O)N[C@@H](CC(C)C)C(=O)N[C@@H](Cc1c[nH]c2ccccc12)C(=O)N[C@@H](CC(=O)O)C(=O)N[C@@H](CC(C)C)C(=O)N[C@@H](CCSC)C(=O)N[C@@H](CCCCN)C(=O)O)[C@H](C)O (H-DI[dT]WDQLWDLMK-OH) | 2700 | – |
| CC[C@@H](C)[C@@H](NC(=O)[C@@H](N)CC(=O)O)C(=O)N[C@H](C(=O)N[C@@H](Cc1c[nH]c2ccccc12)C(=O)N[C@@H](CC(=O)O)C(=O)N[C@@H](CCC(N)=O)C(=O)N[C@@H](CC(C)C)C(=O)N[C@@H](Cc1c[nH]c2ccccc12)C(=O)N[C@@H](CC(=O)O)C(=O)N[C@@H](CC(C)C)C(=O)N[C@@H](CCSC)C(=O)N[C@@H](CCCCN)C(=O)O)[C@@H](C)O (H-D[dI]TWDQLWDLMK-OH) | 27 | – |
| CCCC[C@H](NC(=O)[C@H](CC(C)C)NC(=O)[C@H](CC(=O)O)NC(=O)[C@H](Cc1c[nH]c2ccccc12)NC(=O)[C@H](CC(C)C)NC(=O)[C@H](CCC(N)=O)NC(=O)[C@H](CC(=O)O)NC(=O)[C@H](Cc1c[nH]c2ccccc12)NC(=O)[C@@H](NC(=O)[C@@H](NC(=O)[C@@H](N)CCC(N)=O)[C@@H](C)CC)[C@@H](C)O)C(=O)N[C@@H](CCCCN)C(=O)O (H-QITWDQLWDL[Nle]K-OH) | 65 | – |
| AEKWDQLWHVMNPAESQ | 65 | – |
| DGDITWDQLWDLMK | 4 | – |
| DITWDQLWDLMK | 3 | IC50 [2]: < 10 µM and 10 µM |
| DYSWHDLWEMMS | 16 | – |
| DYTWFELWDMMQ | 6 | – |
| HITWDQLWNVMN | – | IC50 [2]: 50 µM and 100 µM and ~50 µM; blocking of HL60 cell binding that occurred in the absence of added compound ([2]; peptide at 200 μM, FIG. 1): over 80% |
| HITWDQLWRIMT | 28 | – |
| ITWDQLWDLMK | – | IC50 [1, 4]: 11 nM |
| QITWAQLWNMMK | 12 | – |
| TWDQLWDLMK | – | IC50 [1, 4]: 12000 nM |

Now from value to molecule, other results behind:

| IC50 [1, 3] [nM] | Molecule | also measured |
| --- | --- | --- |
| 1000 | CC[C@H](C)[C@H](NC(=O)[C@@H](N)CC(=O)O)C(=O)N[C@H](C(=O)N[C@@H](Cc1c[nH]c2ccccc12)C(=O)N[C@@H](CC(=O)O)C(=O)N[C@@H](CCC(N)=O)C(=O)N[C@@H](CC(C)C)C(=O)N[C@@H](Cc1c[nH]c2ccccc12)C(=O)N[C@@H](CC(=O)O)C(=O)N[C@@H](CC(C)C)C(=O)N[C@@H](CCSC)C(=O)N[C@H](CCCCN)C(=O)O)[C@@H](C)O (H-DITWDQLWDLM[dK]-OH) | – |
| 23 | CCCC[C@H](NC(=O)[C@H](CC(C)C)NC(=O)[C@H](CC(=O)O)NC(=O)[C@H](Cc1c[nH]c2ccccc12)NC(=O)[C@H](CC(C)C)NC(=O)[C@H](CCC(N)=O)NC(=O)[C@H](CC(=O)O)NC(=O)[C@H](Cc1c[nH]c2ccccc12)NC(=O)[C@@H](NC(=O)[C@@H](NC(=O)[C@@H](N)CC(=O)O)[C@@H](C)CC)[C@@H](C)O)C(=O)N[C@@H](CCCCN)C(=O)O (H-DITWDQLWDL[Nle]K-OH) | – |
| 33000 | CC[C@H](C)[C@H](NC(=O)[C@@H](N)CC(=O)O)C(=O)N[C@H](C(=O)N[C@@H](Cc1c[nH]c2ccccc12)C(=O)N[C@@H](CC(=O)O)C(=O)N[C@@H](CCC(N)=O)C(=O)N[C@@H](CC(C)C)C(=O)N[C@@H](Cc1c[nH]c2ccccc12)C(=O)N[C@@H](CC(=O)O)C(=O)N[C@H](CC(C)C)C(=O)N[C@@H](CCSC)C(=O)N[C@@H](CCCCN)C(=O)O)[C@@H](C)O (H-DITWDQLWD[dL]MK-OH) | – |
| 25 | CC[C@H](C)[C@H](NC(=O)[C@H](N)CC(=O)O)C(=O)N[C@H](C(=O)N[C@@H](Cc1c[nH]c2ccccc12)C(=O)N[C@@H](CC(=O)O)C(=O)N[C@@H](CCC(N)=O)C(=O)N[C@@H](CC(C)C)C(=O)N[C@@H](Cc1c[nH]c2ccccc12)C(=O)N[C@@H](CC(=O)O)C(=O)N[C@@H](CC(C)C)C(=O)N[C@@H](CCSC)C(=O)N[C@@H](CCCCN)C(=O)O)[C@@H](C)O (H-[dD]ITWDQLWDLMK-OH) | – |
| 7 | DITWDELWKIMN | – |
| 22 | DITWDQLWDLMK-NH2 | – |
| 35 | RNMSWLELWEHMK | – |
